Experimental data as given in PMC7450057, “Enhancing intracellular accumulation and target engagement of PROTACs with reversible covalent chemistry” (Nature Communications, 2020).
Several values for one entry are separate records, joined by “and”; a condition that tells them apart may be missing. Equal values may be shown once. Blank lines part the entries; values can stand above or below the compound they belong to.

Legend:
[1] = target: T1, full-length BTK protein (Homo sapiens, UniProt Q06187); test: BTK binding assay (Kd, Eurofins DiscoverX); conditions: for Kd: full-length BTK, duplicates
T1 construct: Kd was measured using the full-length BTK protein by Eurofins DiscoverX; T7 phage fusion or DNA tag for qPCR (generic vendor protocol); purchased Eurofins DiscoverX
Method: The dissociation equilibrium constant Kd was measured using the full-length BTK protein by Eurofins DiscoverX according to the following protocol: kinase-tagged T7 phage strains were prepared in an E. coli host derived from the BL21 strain. E. coli were grown to log-phase and infected with T7 phage and incubated with shaking at 32 °C until lysis. The lysates were centrifuged and filtered to remove cell debris. The remaining kinases were produced in HEK-293 cells and subsequently tagged with DNA for qPCR detection. […] The liganded beads were blocked with excess biotin and washed with blocking buffer (SeaBlock (Pierce), 1% BSA, 0.05% Tween 20, 1 mM DTT) to remove unbound ligand and to reduce non-specific binding. […] Test compounds were prepared as 111X stocks in 100% DMSO. […] The compounds were then diluted directly into the assays such that the final concentration of DMSO was 0.9%. All reactions performed in polypropylene 384-well plate. Each was a final volume of 0.02 mL. […] The kinase concentration in the eluates was measured by qPCR. For kinase-binding constant determination, an 11-point 3-fold serial dilution of each test compound was prepared in 100% DMSO at 100x final test concentration and subsequently diluted to 1x in the assay (final DMSO concentration = 1%). […] Binding constants (Kd values) were calculated with a standard dose-response curve using the Hill equation: Response=Background+Signal−Background/1+KdHillSlope/Dose^HillSlope
The Hill Slope was set to −1. Curves were fitted using a non-linear least square fit with the Levenberg-Marquardt algorithm.

[2] = target: T2, NanoLuc-CRBN fusion (Homo sapiens, UniProt Q96SW2); test: NanoBRET CRBN in-cell target engagement assay; assay type: cell-based; conditions: for NanoBRET(%): Figure 3b; for NanoBRET(%) / IC50: triplicates; for IC50: HEK-293 cells, CRBN tracer 0.5 µM, read-out: CRBN target engagement IC50,TE; for K′P,D (relative intracellular accumulation coefficient): Kd (CRBN)/IC50,TE (CRBN); for intracellular accumulation of RC-1 relative to the compound: from K′P,D values, CRBN (Table 2); for CRBN target engagement IC50 relative to that of RC-1: ratio compound/RC-1
T2 construct: host or cells: HEK 293T/17
Method: The target engagement assay for BTK or CRBN was from Promega (BTK kit, Cat. No. N2500; CRBN kit, Cat. No. CS1810C136) and was performed according to the manufacture’s instruction with some modifications. […] After 2 h incubation, the 3X Nano-Glo® Substrate with NanoLuc® extracellular inhibitor were added to cells and developed for 3 min at room temperature. BRET signals were collected using a BioTek SYNERGY H1 microplate reader equipped with a 450/80-nm BP filter for donor emission and a 610-nm LP filter for acceptor emission. BRET Ratio was calculated with the equation: [(Acceptor sample/Donor sample)–(Acceptor no tracer control/Donor no tracer control)] × 1000. The IC50 of the compound against its BTK or CRBN tracer was calculated using GraphPad Prism software.

[3] = target: BTK (Homo sapiens, UniProt Q06187); test: In vitro BTK kinase assay (PhosphoSens); assay type: biochemical; parameters: purchased SignalChem B10-10H-10; conditions: for IC50: AssayQuant BTK assay kit, 2.5 nM BTK, 1 mM ATP, duplicates, read-out: BTK inhibition IC50; for activity at 2.56 pM: drug concentration 2.56 pM; for activity at 12.8 pM: drug concentration 12.8 pM; for activity at 64 pM: drug concentration 64 pM; for activity at 0.00032 µM: drug concentration 320 pM; for activity at 0.0016 µM: drug concentration 1600 pM; for activity at 0.008 µM: drug concentration 8000 pM; for activity at 0.2 µM: drug concentration 200000 pM; for activity at 1 µM: drug concentration 1000000 pM; for diminished BTK inhibitory activity compared with corresponding warhead control: ratio of IC50 values
Method: BTK kinase activity inhibition IC50 was measured by PhosphoSens® Kinase Assay Kit (Assay Quant Technologies Inc., Cat.# CSKS-AQT0101K). […] Active recombinant BTK was purchased from SignalChem (Cat.# B10-10H-10). All the drugs (3 warhead control and 4 PROTACs) were dissolved in DMSO (10 mM). […] To calculate the IC50, subtract the background fluorescence determined with the “no kinase” control for each time point from the total signal to obtain corrected Relative Fluorescence Units (RFU) values. Plot the corrected RFU vs. Time for each inhibitor concentration and determine the initial reaction rates (slope of the linear portion) for each progress curve for each inhibitor concentration. Then plot velocity (RFU corrected/minute) vs [inhibitor] and determine the IC50 using a 4-parameter logistic fit.

[4] = BTK_-DTT, compound concentration 0.137 nM
[5] = Supplementary Figure 5, replicates, read-out: Inhibition(%)

T2 sequence (Q96SW2 whole entry, the tested form may be a part): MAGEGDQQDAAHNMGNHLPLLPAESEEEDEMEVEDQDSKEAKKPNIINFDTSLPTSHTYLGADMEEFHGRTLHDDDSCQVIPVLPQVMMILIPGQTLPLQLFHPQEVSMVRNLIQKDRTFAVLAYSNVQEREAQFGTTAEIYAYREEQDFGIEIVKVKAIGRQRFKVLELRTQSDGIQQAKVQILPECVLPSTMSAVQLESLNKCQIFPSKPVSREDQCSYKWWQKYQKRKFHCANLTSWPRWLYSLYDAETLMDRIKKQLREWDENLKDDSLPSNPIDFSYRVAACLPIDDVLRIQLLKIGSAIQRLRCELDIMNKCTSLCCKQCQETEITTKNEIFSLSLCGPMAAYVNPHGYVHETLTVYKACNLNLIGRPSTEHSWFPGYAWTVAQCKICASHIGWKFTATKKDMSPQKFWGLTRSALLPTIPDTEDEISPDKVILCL
T2 sequence (Q16531 whole entry partner, the tested form may be a part): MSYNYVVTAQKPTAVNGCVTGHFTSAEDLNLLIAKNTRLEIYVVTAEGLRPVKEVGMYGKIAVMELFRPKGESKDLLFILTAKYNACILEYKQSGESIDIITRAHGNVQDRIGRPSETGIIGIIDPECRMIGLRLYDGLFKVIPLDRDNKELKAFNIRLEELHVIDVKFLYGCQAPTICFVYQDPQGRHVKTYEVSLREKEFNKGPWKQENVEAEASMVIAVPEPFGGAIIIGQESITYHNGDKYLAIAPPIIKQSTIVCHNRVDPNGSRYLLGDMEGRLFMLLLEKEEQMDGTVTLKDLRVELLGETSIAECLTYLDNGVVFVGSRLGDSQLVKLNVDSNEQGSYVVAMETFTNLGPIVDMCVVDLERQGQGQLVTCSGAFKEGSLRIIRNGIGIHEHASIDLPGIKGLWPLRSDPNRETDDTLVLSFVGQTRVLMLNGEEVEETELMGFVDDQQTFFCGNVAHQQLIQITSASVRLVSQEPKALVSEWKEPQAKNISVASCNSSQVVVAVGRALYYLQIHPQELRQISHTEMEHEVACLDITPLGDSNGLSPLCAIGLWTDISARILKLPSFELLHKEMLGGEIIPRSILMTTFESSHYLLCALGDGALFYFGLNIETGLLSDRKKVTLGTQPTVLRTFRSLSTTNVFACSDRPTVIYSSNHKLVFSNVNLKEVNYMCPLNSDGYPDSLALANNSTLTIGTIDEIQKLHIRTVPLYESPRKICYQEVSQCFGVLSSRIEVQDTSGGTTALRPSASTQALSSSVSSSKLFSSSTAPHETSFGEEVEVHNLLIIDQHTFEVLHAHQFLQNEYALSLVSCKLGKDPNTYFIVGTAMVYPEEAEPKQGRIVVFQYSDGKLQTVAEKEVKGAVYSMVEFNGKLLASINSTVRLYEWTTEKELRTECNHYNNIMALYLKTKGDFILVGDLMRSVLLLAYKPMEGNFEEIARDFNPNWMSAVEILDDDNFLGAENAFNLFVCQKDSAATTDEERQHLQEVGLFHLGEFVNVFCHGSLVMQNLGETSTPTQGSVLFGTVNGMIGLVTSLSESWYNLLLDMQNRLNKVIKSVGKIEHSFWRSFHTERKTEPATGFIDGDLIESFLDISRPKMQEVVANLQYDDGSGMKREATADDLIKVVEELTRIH
BTK, sequence (Q06187 whole entry): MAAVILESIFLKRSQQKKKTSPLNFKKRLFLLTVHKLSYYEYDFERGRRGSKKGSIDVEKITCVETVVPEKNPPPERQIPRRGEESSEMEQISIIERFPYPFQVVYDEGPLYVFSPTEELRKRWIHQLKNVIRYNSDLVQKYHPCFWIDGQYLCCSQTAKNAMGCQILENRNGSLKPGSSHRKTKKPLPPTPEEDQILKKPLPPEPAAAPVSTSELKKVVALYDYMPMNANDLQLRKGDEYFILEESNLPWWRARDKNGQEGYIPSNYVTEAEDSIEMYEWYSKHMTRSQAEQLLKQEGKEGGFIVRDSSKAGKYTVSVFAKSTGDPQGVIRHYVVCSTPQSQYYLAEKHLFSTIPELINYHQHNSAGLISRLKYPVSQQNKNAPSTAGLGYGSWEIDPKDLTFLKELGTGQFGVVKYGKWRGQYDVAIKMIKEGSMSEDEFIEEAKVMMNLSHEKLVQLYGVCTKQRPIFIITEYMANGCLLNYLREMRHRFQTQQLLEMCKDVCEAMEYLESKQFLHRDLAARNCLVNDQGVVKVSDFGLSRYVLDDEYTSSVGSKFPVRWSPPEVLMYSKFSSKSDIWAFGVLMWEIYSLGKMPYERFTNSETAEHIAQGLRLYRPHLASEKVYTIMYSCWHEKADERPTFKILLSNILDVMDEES
T1 sequence (Q06187 whole entry, the tested form may be a part): as the sequence (Q06187 whole entry) above

- Signal ([1]; BTK_+DTT, compound concentration 0.00491 nM): 2.11E-05 and 2.14E-05
- Signal ([1]; BTK_+DTT, compound concentration 0.0147 nM): 1.62E-05 and 1.97E-05
- Signal ([1]; BTK_+DTT, compound concentration 0.0442 nM): 2.15E-05 and 2.03E-05
- Signal ([1]; BTK_+DTT, compound concentration 0.133 nM): 2.11E-05 and 2.33E-05
- Signal ([1]; BTK_+DTT, compound concentration 0.398 nM): 1.86E-05 and 1.95E-05
- Signal ([1]; BTK_+DTT, compound concentration 1.19 nM): 1.43E-05 and 1.52E-05
- Signal ([1]; BTK_+DTT, compound concentration 3.58 nM): 1.06E-05 and 1.08E-05
- Signal ([1]; BTK_+DTT, compound concentration 10.7 nM): 5.42E-06 and 5.34E-06
- Signal ([1]; BTK_+DTT, compound concentration 32.2 nM): 1.75E-06 and 1.73E-06
- Signal ([1]; BTK_+DTT, compound concentration 96.7 nM): 3.47E-07 and 3.72E-07
- Signal ([1]; BTK_+DTT, compound concentration 290 nM): 8.87E-08 and 9.98E-08
- Signal ([1]; BTK_-DTT, compound concentration 0.0152 nM): 1.52E-05 and 1.19E-05
- Signal ([1]; BTK_-DTT, compound concentration 0.0457 nM): 1.62E-05 and 1.68E-05
- Signal [1, 4]: 1.78E-05 and 1.76E-05
- Signal ([1]; BTK_-DTT, compound concentration 0.412 nM): 1.29E-05 and 1.60E-05
- Signal ([1]; BTK_-DTT, compound concentration 1.23 nM): 1.07E-05 and 1.11E-05
- Signal ([1]; BTK_-DTT, compound concentration 3.7 nM): 7.15E-06 and 6.34E-06
- Signal ([1]; BTK_-DTT, compound concentration 11.1 nM): 3.52E-06 and 2.70E-06
- Signal ([1]; BTK_-DTT, compound concentration 33.3 nM): 1.15E-06
- Signal ([1]; BTK_-DTT, compound concentration 100 nM): 3.02E-07 and 3.08E-07
- Signal ([1]; BTK_-DTT, compound concentration 300 nM): 1.03E-07 and 9.31E-08
- Kd ([1]; absence of DTT in the buffer): 0.003 µM
- NanoBRET(%) ([2]; 1.00E-05 M): 14.8662% and 22.7538% and 22.1529%
- NanoBRET(%) ([2]; 1.60E-08 M): 80.9317% and 101.051% and 94.8942%
- NanoBRET(%) ([2]; 2.00E-06 M): 31.3092% and 33.6262% and 37.1463%
- NanoBRET(%) ([2]; 3.20E-09 M): 91.4483% and 90.0848%
- NanoBRET(%) ([2]; 4.00E-07 M): 56.7638% and 59.2904%
- NanoBRET(%) ([2]; 8.00E-08 M): 86.864% and 89.7074% and 93.5853%
- IC50 [2]: 0.86 µM
- K′P,D (relative intracellular accumulation coefficient) [2]: 1.7
- CRBN engagement ([2]; at 400 nM): ~ 40%
- intracellular accumulation of RC-1 relative to the compound [2]: 10 fold
- CRBN target engagement IC50 relative to that of RC-1 [2]: 3 fold
- IC50 [3]: 0.0008 µM
- activity at 2.56 pM [3, 5]: 86.2%
- activity at 12.8 pM [3, 5]: 77.7%
- activity at 64 pM [3, 5]: 78.1%
- activity at 0.00032 µM [3, 5]: 65.7%
- activity at 0.0016 µM [3, 5]: 28%
- activity at 0.008 µM [3, 5]: 4.02%
- activity at 0.2 µM [3, 5]: 0.667%
- activity at 1 µM [3, 5]: 2.16%
- diminished BTK inhibitory activity compared with corresponding warhead control [3]: < 3 fold
Structure (SMILES): CN(CC=CC(=O)N1CCCC(n2nc(-c3ccc(Oc4ccccc4)cc3)c3c(N)ncnc32)C1)CCCNC(=O)CNc1cccc2c1C(=O)N(C1CCC(=O)NC1=O)C2=O (stereo not shown) [IRC-1]

- Signal ([1]; BTK_+DTT, compound concentration 0.0457 nM): 1.67E-05 and 2.04E-05
- Signal ([1]; BTK_+DTT, compound concentration 0.137 nM): 2.07E-05
- Signal ([1]; BTK_+DTT, compound concentration 0.412 nM): 1.78E-05 and 1.97E-05
- Signal ([1]; BTK_+DTT, compound concentration 1.23 nM): 1.66E-05 and 1.94E-05
- Signal ([1]; BTK_+DTT, compound concentration 3.7 nM): 9.43E-06 and 1.17E-05
- Signal ([1]; BTK_+DTT, compound concentration 11.1 nM): 5.40E-06 and 5.82E-06
- Signal ([1]; BTK_+DTT, compound concentration 33.3 nM): 1.59E-06 and 1.81E-06
- Signal ([1]; BTK_+DTT, compound concentration 100 nM): 4.37E-07 and 5.02E-07
- Signal ([1]; BTK_+DTT, compound concentration 300 nM): 2.01E-07 and 2.30E-07
- Signal ([1]; BTK_+DTT, compound concentration 900 nM): 1.47E-07 and 2.72E-07
- Signal ([1]; BTK_+DTT, compound concentration 2700 nM): 1.45E-07 and 2.02E-07
- Signal [1, 4]: 2.06E-05
- Kd ([1]; standard assay buffer in the presence of DTT (6 mM) (DiMe compounds: BTK_+DTT per Supplementary Data 1)): 0.0047 µM
- NanoBRET(%) ([2]; 1.60E-08 M): 102.085% and 102.001%
- NanoBRET(%) ([2]; 2.00E-06 M): 49.8083% and 51.4483% and 59.2693%
- NanoBRET(%) ([2]; 3.20E-09 M): 100.05% and 108.808% and 104.469%
- NanoBRET(%) ([2]; 4.00E-07 M): 67.9857% and 66.2855% and 79.0983%
- NanoBRET(%) ([2]; 8.00E-08 M): 74.8615% and 82.1247%
- IC50 [2]: 1.69 µM
- K′P,D (relative intracellular accumulation coefficient) [2]: 1.1
- intracellular accumulation of RC-1 relative to the compound [2]: 16 fold
- CRBN target engagement IC50 relative to that of RC-1 [2]: 7 fold
- IC50 [3]: 0.0212 µM
- activity at 2.56 pM [3, 5]: 87.5%
- activity at 12.8 pM [3, 5]: 93%
- activity at 64 pM [3, 5]: 88%
- activity at 0.00032 µM [3, 5]: 96.2%
- activity at 0.0016 µM [3, 5]: 83.6%
- activity at 0.008 µM [3, 5]: 71.7%
- activity at 0.04 µM ([3]; Supplementary Figure 5, drug concentration 40000 pM, replicates, read-out: Inhibition(%)): 32.2%
- activity at 0.2 µM [3, 5]: 14%
- activity at 1 µM [3, 5]: 4.94%
- diminished BTK inhibitory activity compared with corresponding warhead control [3]: < 3 fold
Structure (SMILES): CN(CCCNC(=O)CNc1cccc2c1C(=O)N(C1CCC(=O)NC1=O)C2=O)CCCC(=O)N1CCCC(n2nc(-c3ccc(Oc4ccccc4)cc3)c3c(N)ncnc32)C1 (stereo not shown) [RNC-1]
